Assay results reported in patent publication US12534469B2 (CHILDREN'S HOSPITAL MEDICAL CENTER, priority 2020, dated 2026).

Experiments:
Type in all cases: biochemical
IRAK4 = biological target: T1, IRAK4 (Homo sapiens, UniProt Q9NWZ3); assay: RBC HotSpot Kinase Assay, IRAK4; design: purchased Reaction Biology (RBC HotSpot Kinase Assay)
T1 sequence (Q9NWZ3 1-460): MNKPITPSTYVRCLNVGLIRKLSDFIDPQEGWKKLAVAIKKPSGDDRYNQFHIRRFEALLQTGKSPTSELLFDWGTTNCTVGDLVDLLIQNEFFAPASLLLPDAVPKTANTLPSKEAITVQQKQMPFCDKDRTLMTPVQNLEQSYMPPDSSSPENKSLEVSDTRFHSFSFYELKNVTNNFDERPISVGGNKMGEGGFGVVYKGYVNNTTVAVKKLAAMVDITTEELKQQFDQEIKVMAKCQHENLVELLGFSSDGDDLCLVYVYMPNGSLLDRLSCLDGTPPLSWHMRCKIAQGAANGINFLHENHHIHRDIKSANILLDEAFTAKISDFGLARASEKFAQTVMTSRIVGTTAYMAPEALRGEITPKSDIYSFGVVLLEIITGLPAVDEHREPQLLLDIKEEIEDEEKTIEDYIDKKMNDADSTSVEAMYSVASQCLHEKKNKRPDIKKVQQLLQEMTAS
Excerpt: (§1) This assay uses the isolated kinase enzyme. This assay is very useful for determining competition of the inhibitor for ATP and/or substrates and for measuring the kinetics of enzyme inhibition. […] Unlike kinase binding assays that measure competition for ATP, the HotSpot Kinase Assay is a functional assay that measures catalytic activity; as such it measures relative functional potency regardless of the mechanism of enzyme inhibition. This assay uses the form of the various enzymes that are easiest to express, which may not necessarily be the form of the enzyme that exist in the cell. (Sometimes the carboxy terminus has been truncated to aid in expression, or, if it is a receptor kinase, the enzyme itself is isolated from the other parts of the receptor that are involved in regulating kinase activity.)
(§2) The reagent used was as follows: Base Reaction buffer; 20 mM Hepes (pH 7.5), 10 mM MgCl2, 1 mM EGTA, 0.01% Brij35, 0.02 mg/ml BSA, 0.1 mM Na3VO4, 2 mM DTT, 1% DMSO. Required cofactors were added individually to each kinase reaction.
(§3) The reaction procedure was as follows: • 1) Substrates were prepared in freshly prepared Reaction Buffer. • 2) Any required cofactors were delivered to the substrate solution above. • 3) Kinase was delivered into the substrate solution and gently mixed. • 4) Compounds were delivered in 100% DMSO into the kinase reaction mixture by Acoustic technology (Echo550; nanoliter range), followed by incubation for 20 min at room temp. • 5) ^33P-ATP was delivered into the reaction mixture to initiate the reaction. • 6) The mixture was incubated for 2 hours at room temperature. • 7) Kinase activity was detected by P81 filter-binding method.

IRAK1 = biological target: T2, IRAK1 (Homo sapiens, UniProt P51617); assay: RBC HotSpot Kinase Assay, IRAK1
T2 construct: purchased Reaction Biology (RBC HotSpot Kinase Assay)
Excerpt: as §1, §2, §3

FLT3 = biological target: T3, FLT3 (Homo sapiens, UniProt P36888); assay: RBC HotSpot Kinase Assay, FLT3
T3 construct: purchased Reaction Biology (RBC HotSpot Kinase Assay)
T3 sequence (P36888 564-958 limits assumed): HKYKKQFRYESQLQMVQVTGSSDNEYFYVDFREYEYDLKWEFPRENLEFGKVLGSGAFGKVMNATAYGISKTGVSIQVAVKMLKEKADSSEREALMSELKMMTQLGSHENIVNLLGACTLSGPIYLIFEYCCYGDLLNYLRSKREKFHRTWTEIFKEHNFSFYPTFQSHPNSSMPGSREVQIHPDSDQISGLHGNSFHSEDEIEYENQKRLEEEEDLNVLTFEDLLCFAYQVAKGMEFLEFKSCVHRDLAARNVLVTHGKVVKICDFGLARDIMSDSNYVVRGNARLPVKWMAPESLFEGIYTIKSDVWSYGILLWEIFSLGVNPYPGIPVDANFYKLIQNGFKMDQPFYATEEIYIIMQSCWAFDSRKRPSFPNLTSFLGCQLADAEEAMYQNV
Excerpt: as §1, §2, §3

T2 sequence (P51617 whole entry): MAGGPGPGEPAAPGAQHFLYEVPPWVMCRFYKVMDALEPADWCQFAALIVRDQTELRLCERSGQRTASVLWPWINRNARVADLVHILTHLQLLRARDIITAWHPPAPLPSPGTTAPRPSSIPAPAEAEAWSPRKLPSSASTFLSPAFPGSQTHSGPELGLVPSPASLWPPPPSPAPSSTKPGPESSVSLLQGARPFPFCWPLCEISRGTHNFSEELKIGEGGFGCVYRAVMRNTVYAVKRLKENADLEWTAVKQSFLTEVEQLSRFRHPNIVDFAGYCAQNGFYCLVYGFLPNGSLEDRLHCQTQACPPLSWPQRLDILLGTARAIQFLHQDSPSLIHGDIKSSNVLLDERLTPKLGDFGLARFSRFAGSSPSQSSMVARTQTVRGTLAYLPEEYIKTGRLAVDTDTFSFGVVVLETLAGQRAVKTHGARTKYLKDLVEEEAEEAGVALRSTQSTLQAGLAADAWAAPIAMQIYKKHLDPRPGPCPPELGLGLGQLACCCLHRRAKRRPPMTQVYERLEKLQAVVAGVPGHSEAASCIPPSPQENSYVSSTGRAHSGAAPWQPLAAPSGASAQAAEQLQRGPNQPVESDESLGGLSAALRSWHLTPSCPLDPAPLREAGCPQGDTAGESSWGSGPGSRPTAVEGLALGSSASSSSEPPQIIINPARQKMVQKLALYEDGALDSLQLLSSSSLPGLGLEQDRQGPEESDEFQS

Row | SMILES | IC50 (IRAK4) | IC50 (IRAK1) | IC50 (FLT3)
1 | c1cc(NC2CCC3(CNC3)C2)nc(-c2cnc3ccc(-c4cnn5ccccc45)nn23)c1 (stereo not drawn) [Compound 63, N-(6-(6-(pyrazolo[1,5-a]pyridin-3-yl)imidazo[1,2-b]pyridazin-3-yl)pyridin-2-yl)-2-azaspiro[3.4]octan-6-amine] | 28 nM | 269 nM | < 0.5 nM
2 | COc1ccc2ncc(-c3cccc(N[C@H]4CNC[C@@H]4F)n3)n2n1 [Compound 87, N-((3S,4S)-4-fluoropyrrolidin-3-yl)-6-(6-methoxyimidazo[1,2-b]pyridazin-3-yl)pyridin-2-amine] | 83 nM | 1650 nM | 3 nM
3 | F[C@H]1CNC[C@@H]1Nc1cccc(-c2cnc3ccc(C(F)(F)F)nn23)n1 [Compound 79, N-((3S,4S)-4-fluoropyrrolidin-3-yl)-6-(6-(trifluoromethyl)imidazo[1,2-b]pyridazin-3-yl)pyridin-2-amine] | 21 nM | 4570 nM | 3 nM
4 | F[C@H]1CNC[C@@H]1Nc1cccc(-c2cnc3ccc(C4CC4)nn23)n1 [Compound 69, 6-(6-cyclopropylimidazo[1,2-b]pyridazin-3-yl)-N-((3S,4S)-4-fluoropyrrolidin-3-yl)pyridin-2-amine] | 45 nM | 3970 nM | 3 nM
5 | F[C@H]1CNC[C@@H]1Nc1cccc(-c2cnc3ccc(Oc4ccccc4)nn23)n1 [Compound 88, N-((3S,4S)-4-fluoropyrrolidin-3-yl)-6-(6-phenoxyimidazo[1,2-b]pyridazin-3-yl)pyridin-2-amine] | 959 nM | 7240 nM | 22 nM
6 | FC(F)n1cc(-c2ccc3ncc(-c4cccc(N[C@H]5CNC[C@@H]5F)n4)n3n2)cn1 [Compound 2, 6-(6-(1-(difluoromethyl)-1 H-pyrazol-4-yl)imidazo[1,2-b]pyridazin-3-yl)-N-((3S,4S)-4-fluoropyrrolidin-3-yl)pyridin-2-amine] | 115 nM | 948 nM | 2 nM
7 | CC(C)n1cc(-c2ccc3ncc(-c4cccc(NC5CC6(CNC6)C5)n4)n3n2)cn1 [Compound 32, N-(6-(6-(1-isopropyl-1H-pyrazol-4-yl)imidazo[1,2-b]pyridazin-3-yl)pyridin-2-yl)-2-azaspiro[3.3]heptan-6-amine] | 630 nM | 3410 nM | 9 nM
8 | Cn1cc(-c2ccc3ncc(-c4cccc(NC5CNCC5(F)F)n4)n3n2)cn1 (stereo not drawn) [Compound 21, N-(4,4-difluoropyrrolidin-3-yl)-6-(6-(1-methyl-1H-pyrazol-4-yl)imidazo[1,2-b]pyridazin-3-yl)pyridin-2-amine] | 38 nM | 497 nM | 6 nM
9 | c1cc(NC2CC3(CCNC3)C2)nc(-c2cnc3ccc(-c4cnn5ccccc45)nn23)c1 (stereo not drawn) [Compound 62, N-(6-(6-(pyrazolo[1,5-a]pyridin-3-yl)imidazo[1,2-b]pyridazin-3-yl)pyridin-2-yl)-6-azaspiro[3.4]octan-2-amine] | 16 nM | 403 nM | < 0.5 nM
10 | CC1(C)Cc2c(-c3ccc4ncc(-c5cccc(NC6CNCC6(F)F)n5)n4n3)cnn2C1 (stereo not drawn) [Compound 60, N-(4,4-difluoropyrrolidin-3-yl)-6-(6-(5,5-dimethyl-5,6-dihydro-4H-pyrrolo[1,2-b]pyrazol-3-yl)imidazo[1,2-b]pyridazin-3-yl)pyridin-2-amine] | 4 nM | 274 nM | 2 nM
11 | F[C@H]1CNC[C@@H]1Nc1cccc(-c2cnc3ccc(NC4CCC4)nn23)n1 [Compound 91, N-cyclobutyl-3-(6-(((3S,4S)-4-fluoropyrrolidin-3-yl)amino)pyridin-2-yl)imidazo[1,2-b]pyridazin-6-amine] | 101 nM | 1640 nM | 6 nM
12 | c1ccc(-n2cc(-c3ccc4ncc(-c5cccc(NC6CC7(CNC7)C6)n5)n4n3)cn2)cc1 [Compound 33, N-(6-(6-(1-phenyl-1H-pyrazol-4-yl)imidazo[1,2-b]pyridazin-3-yl)pyridin-2-yl)-2-azaspiro[3.3]heptan-6-amine] | 3360 nM | > 10000 nM | 16 nM
